Marks after values point to notes of the source that are not given here.
Columns and labels:
[1] = PHA-001 study: PK interaction study with methotrexate in RA patients; details: single dose of CDP-870 400 mg SC; oral MTX 5-17.5 mg/week
[2] = Half-life of the PEGylated Fab′ fragment; assay type: in vivo; details: PEG chains linked by a single maleimide group
[3] = human, in vivo
patients with active RA [4] = assay: Celltech-004 study: SC every 4 weeks, ACR responder rates; assay type: in vivo, human; details: for ACR-20 responder rate / ACR-50 responder rate / ACR-70 responder rate: week 12
Method: Again, DMARD therapy was discontinued one month prior to study start; concomitant NSAID and corticosteroid use was allowed provided the doses had been stabilized prior to entry into the study.
The protocol was subsequently amended based on the results of the double-blind portion of Panel 1, to increase the dose to 400 mg SC every 4 weeks for an additional 108 weeks.
(§1) The overall effect of CDP870 in reducing the signs and symptoms of RA was summarized using the following global index: • American College of Rheumatology (ACR) Core Set of Disease Activity Measures for Rheumatoid Arthritis Clinical Trials. A patient was considered an ACR 20/50/70 responder if 20/50/70% or greater improvement in number of swollen joints and tender joints and a 20/50/70% or greater improvement in three of the five remaining ACR core set measures (Patient's Assessment of Pain by VAS, Patient's Global Assessment of Disease Activity, Physician's Global Assessment of Disease Activity, Patient's Assessment of Physical Function by mHAQ, acute phase reactant value) was observed; and […]

TNFβ (lymphotoxin) = molecular target: T1, TNFβ (lymphotoxin) (Homo sapiens, UniProt P01374); assay: Neutralization of TNFβ (lymphotoxin)
T1 sequence (P01374 35-205): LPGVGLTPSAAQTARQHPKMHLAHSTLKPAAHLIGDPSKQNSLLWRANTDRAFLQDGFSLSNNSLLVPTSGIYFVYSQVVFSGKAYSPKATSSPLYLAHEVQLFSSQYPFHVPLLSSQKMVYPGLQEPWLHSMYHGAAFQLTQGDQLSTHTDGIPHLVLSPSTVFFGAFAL

patients with active RA [5] = assay: Celltech-002 study: single IV infusion, ACR responder rates; assay type: in vivo, human; details: for ACR20 responder rate / ACR50 responder rate: week 8
Method: DMARD therapy was discontinued one month prior to study start; concomitant nonsteroidal anti-inflammatory drug (NSAID) and corticosteroid use was allowed provided the doses had been stabilized prior to entry into the study. […] Patients were assessed over an 8-week period.
Patients were assessed for an additional 8-week period.
as §1

CN(Cc1cnc2nc(N)nc(N)c2n1)c1ccc(C(=O)N[C@@H](CCC(=O)O)C(=O)O)cc1 [MTX, methotrexate]
mean dose-adjusted MTX plasma concentrations, MTX alone versus coadministration with CDP-870 [1]: not significantly different

CDP-870: PEGylated anti-TNFα Fab′ fragment derived from antibody hTNF40, linked via a cysteine to a lysyl-maleimide linker bearing two methoxy PEG residues
half-life [2]: about 11 days | mean plasma concentration at 55 days postdose [3]: 2740 ng/mL | CL/F (plasma clearance) ([3]; sc): 0.021 L/h | t½ ([3]; sc): 10.738 days | mean t½ ([3]; sc, 400 mg): 10.7 days | overall plasma exposure (AUC) over the 55-day monitoring period ([3]; sc, 400 mg): approximately 22000 hr*μg/mL | ACR-20 responder rate (patients with active RA [4]; 50 mg SC every 4 weeks): 21 % of Patients | ACR-50 responder rate (patients with active RA [4]; 50 mg SC every 4 weeks): 8 % of Patients | ACR-70 responder rate (patients with active RA [4]; 50 mg SC every 4 weeks): 5 % of Patients | ACR-20 responder rate (patients with active RA [4]; 100 mg SC every 4 weeks): 20 % of Patients | ACR-50 responder rate (patients with active RA [4]; 100 mg SC every 4 weeks): 5 % of Patients | ACR-70 responder rate (patients with active RA [4]; 100 mg SC every 4 weeks): 3 % of Patients | ACR-20 responder rate (patients with active RA [4]; 200 mg SC every 4 weeks): 34 % of Patients | ACR-50 responder rate (patients with active RA [4]; 200 mg SC every 4 weeks): 17* % of Patients | ACR-70 responder rate (patients with active RA [4]; 200 mg SC every 4 weeks): 7 % of Patients | ACR-20 responder rate (patients with active RA [4]; 400 mg SC every 4 weeks): 60* % of Patients | ACR-50 responder rate (patients with active RA [4]; 400 mg SC every 4 weeks): 40* % of Patients | ACR-70 responder rate (patients with active RA [4]; 400 mg SC every 4 weeks): 29* % of Patients | ACR-20 responder rate (patients with active RA [4]; 600 mg SC every 4 weeks): 64* % of Patients | ACR-50 responder rate (patients with active RA [4]; 600 mg SC every 4 weeks): 33* % of Patients | ACR-70 responder rate (patients with active RA [4]; 600 mg SC every 4 weeks): 21* % of Patients | ACR-20 responder rate (patients with active RA [4]; 800 mg SC every 4 weeks): 79* % of Patients | ACR-50 responder rate (patients with active RA [4]; 800 mg SC every 4 weeks): 47* % of Patients | ACR-70 responder rate (patients with active RA [4]; 800 mg SC every 4 weeks): 21* % of Patients | efficacy in treating the signs and symptoms of RA (patients with active RA [4]; doses ≧400 mg SC every 4 weeks): efficacious | neutralization of TNFβ (lymphotoxin) (TNFβ (lymphotoxin)): does not neutralize | ACR20 responder rate (patients with active RA [5]; 1 mg/kg single IV): 25 % of Patients | ACR50 responder rate (patients with active RA [5]; 1 mg/kg single IV): 13 % of Patients | ACR20 responder rate (patients with active RA [5]; 5 mg/kg single IV): 75 % of Patients | ACR50 responder rate (patients with active RA [5]; 5 mg/kg single IV): 13 % of Patients | ACR20 responder rate (patients with active RA [5]; 20 mg/kg single IV): 75 % of Patients | ACR50 responder rate (patients with active RA [5]; 20 mg/kg single IV): 50 % of Patients | efficacy in reducing the signs and symptoms of RA (patients with active RA [5]; single IV dose of 1, 5 or 20 mg/kg, over 8 weeks): efficacious
